Patent US11911353B2, “Fatty acid synthase inhibitor and application thereof” (Jiangnan University, priority 2019, dated 2024)

Experiments:
Assay type in all cases: cell-based
[1] = tested on: colon cancer cells HCT116; assay: MTT tumor proliferation IC50, HCT116
From the text: (§1) IC50 (half maximal inhibitory concentration) refers to the half inhibitory concentration of a measured antagonist. It can indicate that a certain concentration of a certain drug or substance (inhibitor) induces tumor cell apoptosis by 50%, and this concentration is referred to as 50% inhibitory concentration, namely, the corresponding concentration when the ratio of apoptotic cells to the total number of cells is equal to 50%. The IC50 value can be used to measure the ability of a drug to induce apoptosis, that is, the higher the inducing ability, the lower the value, which also can indicate the tolerance degree of a certain cell to a drug on the contrary. • (1) Cells in the logarithmic phase are collected, the concentration of a cell suspension is adjusted, it is appropriate to place 100 μl cells in each well of a 96-well plate, the cells are inoculated into the plate to adjust the density of to-be-detected cells to be 1000-10000 cells/well, and edge wells are filled with sterile PBS. • (2) The cells are incubated under 5% CO2 at 37° C., an original culture medium is discarded after complete cell adherence, 200 μl of 1 wt % FBS culture medium containing 0.01 μM, 0.1 μM, 1 μM, 5 μM and 10 μM compound I-1 or cerulenin is added into each well, and there are 6 wells run in duplicate. An equal volume of DMSO is added as a negative control. • (3) After 72 hours of incubation, the cells are photographed for state recording, an original culture medium is discarded, and 100 μl of serum-free culture medium containing 0.5 mg/ml MTT (3-(4,5-dimethylthiazole-2)-2,5-diphenyltetrazolium bromide, trade name thiazolyl blue) is added into each well. • (4) After 2-4 hours of incubation, an original culture medium is discarded, and 150 μl of dimethyl sulfoxide (DMSO) is added into each well and shaken at 300 rpm for 10 minutes to fully dissolve purple crystals. • (5) The absorbance of each well at OD570 nm is measured by an enzyme-linked immunodetection instrument, the absorbance at OD630 nm is used as a reference, dual-wavelength measurement is carried out, and survival rate results are calculated according to the following formula: Cell survival rate=(OD570−OD630)/(OD570 negative control−OD630 negative control);
(§2) wherein, OD570: OD570 value of each treatment group; OD630: OD630 value of each treatment group; OD570 control: OD570 value of the negative control group; OD630 control: OD630 value of the negative control group. • (6) The survival rate results are processed with graphpad 6.0 software according to the concentration gradient, the analysis mode is log (inhibitor) vs. Nonlinear regression (curve fit), and the calculated IC50 value is expressed as x+/−SD.
(§3) The FASN enzyme activity measurement method shown in Experimental Example 18 is used to detect the effects of different substances on FASN enzyme activity. The method shown in Experimental Example 19 is used to detect the effects of different substances on the proliferation of tumor cells, cerulenin is used as a control, and the inhibition rates (%) of different substances on FASN enzyme activity and inhibition rates (IC50 nM) on tumor proliferation are calculated.

[2] = molecular target: T1, fatty acid synthase (FASN) in colon cancer cells HCT116 (Homo sapiens, UniProt P49327); assay: FASN enzyme activity detection in treated HCT116 cells (NADPH absorbance at 340 nm); details: for inhibition at 20 µM: HCT-116, 4 hours of incubation, read-out: FASN enzyme activity inhibition rate (%)
T1 construct: endogenous in cells; host or cells: HCT116 colon cancer cells
T1 sequence (P49327 whole entry): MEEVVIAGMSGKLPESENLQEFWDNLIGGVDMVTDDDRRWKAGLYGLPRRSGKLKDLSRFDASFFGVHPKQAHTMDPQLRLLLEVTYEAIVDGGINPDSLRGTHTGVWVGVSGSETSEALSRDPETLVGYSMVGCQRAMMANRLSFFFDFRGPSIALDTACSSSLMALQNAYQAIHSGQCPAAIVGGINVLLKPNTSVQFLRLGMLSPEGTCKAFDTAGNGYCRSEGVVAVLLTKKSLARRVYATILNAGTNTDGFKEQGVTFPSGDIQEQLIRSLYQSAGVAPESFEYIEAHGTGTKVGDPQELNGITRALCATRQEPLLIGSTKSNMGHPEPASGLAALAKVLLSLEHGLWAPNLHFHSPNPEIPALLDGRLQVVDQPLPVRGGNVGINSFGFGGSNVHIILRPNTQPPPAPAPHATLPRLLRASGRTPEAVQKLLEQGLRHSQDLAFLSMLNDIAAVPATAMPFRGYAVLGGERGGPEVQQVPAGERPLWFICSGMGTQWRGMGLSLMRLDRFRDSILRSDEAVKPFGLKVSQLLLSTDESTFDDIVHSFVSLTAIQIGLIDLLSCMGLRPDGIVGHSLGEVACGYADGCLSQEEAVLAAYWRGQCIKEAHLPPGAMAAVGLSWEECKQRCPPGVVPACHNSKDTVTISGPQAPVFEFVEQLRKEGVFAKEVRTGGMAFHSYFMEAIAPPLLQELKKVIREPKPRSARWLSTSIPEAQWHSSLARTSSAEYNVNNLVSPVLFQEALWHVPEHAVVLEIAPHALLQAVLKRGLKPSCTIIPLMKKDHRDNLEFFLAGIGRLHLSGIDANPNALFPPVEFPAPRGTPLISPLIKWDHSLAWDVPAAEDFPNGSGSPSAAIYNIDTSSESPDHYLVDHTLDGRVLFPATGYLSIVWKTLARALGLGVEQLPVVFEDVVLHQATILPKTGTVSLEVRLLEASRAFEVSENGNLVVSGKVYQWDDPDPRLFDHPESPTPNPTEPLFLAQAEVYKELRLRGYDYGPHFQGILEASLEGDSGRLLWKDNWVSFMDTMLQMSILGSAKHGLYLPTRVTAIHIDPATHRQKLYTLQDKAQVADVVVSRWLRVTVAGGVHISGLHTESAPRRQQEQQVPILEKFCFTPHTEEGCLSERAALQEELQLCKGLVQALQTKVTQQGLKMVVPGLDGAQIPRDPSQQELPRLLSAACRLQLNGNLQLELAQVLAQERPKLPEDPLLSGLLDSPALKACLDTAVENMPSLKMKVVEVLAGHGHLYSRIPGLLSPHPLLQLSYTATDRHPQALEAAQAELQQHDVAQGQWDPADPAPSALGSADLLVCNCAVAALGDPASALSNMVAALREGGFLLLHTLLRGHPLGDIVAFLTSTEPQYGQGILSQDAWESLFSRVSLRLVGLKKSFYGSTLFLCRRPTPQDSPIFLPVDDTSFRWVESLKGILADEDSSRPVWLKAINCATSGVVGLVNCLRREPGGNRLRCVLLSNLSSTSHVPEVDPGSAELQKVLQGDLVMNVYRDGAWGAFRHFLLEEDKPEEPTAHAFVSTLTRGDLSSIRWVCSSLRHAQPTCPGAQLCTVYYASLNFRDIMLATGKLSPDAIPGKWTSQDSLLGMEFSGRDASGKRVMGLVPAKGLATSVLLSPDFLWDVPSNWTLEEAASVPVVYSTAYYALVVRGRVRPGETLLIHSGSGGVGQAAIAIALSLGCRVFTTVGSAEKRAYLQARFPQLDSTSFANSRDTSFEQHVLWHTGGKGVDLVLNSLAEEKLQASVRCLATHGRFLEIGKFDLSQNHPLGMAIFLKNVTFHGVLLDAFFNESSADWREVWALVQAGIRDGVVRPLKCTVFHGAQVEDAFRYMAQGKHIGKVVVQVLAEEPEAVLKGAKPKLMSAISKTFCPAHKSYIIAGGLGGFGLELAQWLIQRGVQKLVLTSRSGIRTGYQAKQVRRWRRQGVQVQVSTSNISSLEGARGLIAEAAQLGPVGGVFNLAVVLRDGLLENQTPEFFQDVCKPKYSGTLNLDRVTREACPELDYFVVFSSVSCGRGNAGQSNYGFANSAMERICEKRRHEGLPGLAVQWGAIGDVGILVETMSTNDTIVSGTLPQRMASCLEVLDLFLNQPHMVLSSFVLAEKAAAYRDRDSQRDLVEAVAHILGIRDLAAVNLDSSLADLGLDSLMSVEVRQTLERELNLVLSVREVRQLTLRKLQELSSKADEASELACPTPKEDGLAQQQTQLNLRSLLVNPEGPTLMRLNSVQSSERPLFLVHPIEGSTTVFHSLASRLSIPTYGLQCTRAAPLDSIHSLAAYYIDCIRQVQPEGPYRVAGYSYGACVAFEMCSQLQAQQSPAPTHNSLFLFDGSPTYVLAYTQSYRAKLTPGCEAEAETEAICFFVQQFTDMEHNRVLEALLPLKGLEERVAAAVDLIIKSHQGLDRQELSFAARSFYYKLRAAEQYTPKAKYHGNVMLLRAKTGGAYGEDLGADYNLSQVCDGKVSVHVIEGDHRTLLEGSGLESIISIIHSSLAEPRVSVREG

[3] = tested on: prostate cancer cells PC-3; assay: MTT tumor proliferation IC50, PC-3; details: 72 hours of incubation
From the text: as §1, §2, §3

[4] = tested on: tumor cells 22RV1, PC-3, HT-29, Hela, Hep G2, CaCo-2 and HCT116; assay: MTT proliferation of various tumor cells at single concentration (FIG. 2); details: 10 μM, 72 hours, 7 different tumor cells
From the text: Cell survival rate=(OD570−OD630)/(OD570 negative control−OD630 negative control); wherein, OD570: OD570 value of each treatment group; OD630: OD630 value of each treatment group; OD570 control: OD570 value of the negative control group; OD630 control: OD630 value of the negative control group.

[5] = Homo sapiens, HCT-116, 72 hours of incubation

| Molecule | IC50 ([1]; 72 hours of incubation) [nM] | FASN enzyme activity inhibition rate (%) ([2]; 20 μM, 4 hours of incubation) | IC50 [3] [nM] | IC50 [1, 5] [nM] | effect on proliferation of tumor cells [4] | inhibition at 20 µM [2] [%] |
| --- | --- | --- | --- | --- | --- | --- |
| 5-(4-bromophenylamino)-5-oxopentanoic acid [Intermediate 1] | 19 ± 2.1 | 31.87 | 15 ± 1.3 |  |  |  |
| C/C=C/C/C=C/CCC(=O)[C@H]1O[C@H]1C(N)=O [Cerulenin, cerulenin, reference compound] |  |  | 18 ± 2.7 | 29 ± 3.2 | no significant effect on the proliferation of some tumor cells | 21.3 |
| C=C1C(=O)OC(CCCCCCCC)C1C(=O)O (centres unmarked) [Compound C75, C75] |  |  |  |  | no significant effect on the proliferation of some tumor cells |  |
| COc1ccc(Br)cc1CNC(=O)NCCCC(=O)Nc1ccc(Br)cc1 [Compound I-2] |  |  | 16 ± 2.9 | 21 ± 1.6 |  | 30.7 |
| O=C(CCCNC(=O)NCc1cc(Br)ccc1O)Nc1ccc(Br)cc1 [Compound I-3] |  |  | 14 ± 2.8 | 15 ± 2.5 |  | 41.2 |
| O=C(CCCC(=O)Nc1ccc(Br)cc1)NNC(=O)c1cc(Br)ccc1O [Compound I-4] |  |  | 11 ± 1.8 | 14 ± 1.7 |  | 49 |
| O=C(CCC(=O)Nc1ccccc1)/N=C/c1ccccc1 [Compound I-6] |  |  | 15 ± 1.8 | 17 ± 2.7 |  | 41.9 |
| O=C(CCC(=O)Nc1ccccc1)NC(=O)c1ccccc1 [Compound I-7] |  |  | 15 ± 2.1 | 19 ± 1.9 |  | 37.7 |
| O=C(CCC(=O)Nc1ccccc1)/N=C/Cc1ccccc1 [Compound I-8] |  |  | 16 ± 1.7 | 20 ± 3.5 |  | 35.2 |
| CCOC(=O)CCCC(=O)Nc1ccc(Br)cc1 [Intermediate 2, Ethyl 5-(4-bromophenylamino)-5-oxopentanoate] |  |  | 18 ± 2.5 | 22 ± 3.1 |  | 22.2 |
